# Laboratory results: patent US20230285402A1, “Compositions and Methods of Modulating Short-Chain Dehydrogenase Activity” (BOARD OF REGENTS OF THE UNIVERSITY OF TEXAS SYSTEM, priority 2013, published 2023)
# Experiments:
# recombinant 15-PGDH [1] = molecular target: T1, recombinant 15-PGDH (Homo sapiens (Human), UniProt P15428); test: Inhibition of enzymatic activity of recombinant 15-PGDH in vitro (NADH generation); format: biochemical
# recombinant 15-PGDH [2] = molecular target: T1, recombinant 15-PGDH; test: Melting temperature shift of recombinant 15-PGDH (SYPRO Orange); format: binding; details: Differential Scanning Fluorimetry; shifted from 50.5
# [3] = system: 15-PGH-luciferase fusion protein reporter in the Vaco-9M (V9M) cell line; test: 15-PGDH-luciferase fusion reporter induction in V9M cells; format: cell-based
# Procedure: Some residual activity is seen for isomer B when added at 3.2 μM concentration. The small residual activity of isomer A may be due to possible 3% contamination with some residual isomer B.
# [4] = system: PGE2 in colon, bone marrow, liver, lung; test: PGE2 in mouse tissues after IP injection; format: in vivo; details: IP dose of 10 mg/kg body weight
# Procedure: Shown is measurement by Elisa of PGE2 (ng PGE2/mg of tissue protein) from 4 mouse tissues: lung, liver, colon and bone marrow. […] Tissues were harvested for PGE2 assay at either 2 hour (2 h) or 3 hour (3 h) time points following drug injection.
# mice [5] = test: Homing of CFSE labeled donor bone marrow cells in lethally irradiated mice; format: in vivo, mouse; details: 10 mg/kg body weight
# Procedure: Drugs are administered following radiation, following the transplant, and again at 8 hours after the transplant.
# [6] = Chemical stability in aqueous solutions; format: physicochemical; details: broad pH range
# [7] = Stability with mouse liver extracts; format: in vitro ADME
# [8] = Stability with rat liver extracts; format: in vitro ADME
# [9] = Stability with human liver extracts; format: in vitro ADME
# mice [10] = test: Immediate toxicity after IP injection into mice; format: in vivo; details: over 24 hours; 50 mg/kg body weight IP
# T1 sequence (P15428 whole entry): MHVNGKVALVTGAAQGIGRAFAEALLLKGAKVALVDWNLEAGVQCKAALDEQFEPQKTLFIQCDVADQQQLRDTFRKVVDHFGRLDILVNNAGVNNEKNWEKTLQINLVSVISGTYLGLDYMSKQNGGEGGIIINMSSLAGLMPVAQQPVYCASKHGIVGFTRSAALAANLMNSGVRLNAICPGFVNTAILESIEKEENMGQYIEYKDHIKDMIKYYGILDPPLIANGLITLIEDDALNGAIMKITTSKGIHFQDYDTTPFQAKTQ
Structure (SMILES),IC50 lower than the parent racemic mixture (recombinant 15-PGDH [1]; vs racemic SW033291),melting temperature (recombinant 15-PGDH [2]),concentration for full activity [3],concentration that inhibits recombinant 15-PGDH (recombinant 15-PGDH [1]; enzyme concentration approximately 6 nM),"PGE2 levels in the colon, lung, liver and bone marrow [4]",homing of hematopoietic stem cells following bone marrow transplantation (mice [5]),chemical stability in aqueous solutions [6],stability when incubated with liver extracts [7],stability when incubated with liver extracts [8],stability when incubated with liver extracts [9],immediate toxicity (mice [10])
CCCC[S@](C)(O)c1sc2nc(-c3cccs3)cc(-c3ccccc3)c2c1N [SW033291 isomer B],40%,68 °C,0.1 µM,–,–,–,–,–,–,–,–
CCCC[S+]([O-])c1sc2nc(-c3nccs3)cc(-c3cnc(C)n3C)c2c1N (centres unmarked) [formula (XIII)],–,–,–,3 nM,elevates PGE2 levels,increases homing,chemically stable,chemically stable,chemically stable,chemically stable,no immediate toxicity
